# Source: patent publication US6683079B2, “3-(amino-or aminoalkyl) pyridinone derivatives and their use for the treatment of HIV related diseases” (Centre National de la Recherche Scientifique, priority 1998, dated 2004)
# What was measured:
# HIV-1 strain 103 N = assay: Retrovirucidal effect on HIV-1 strain 103 N (Table 3); assay type: cell-based; details: HIV-1 strain 103N (RT Lys-103 to Asn mutant); pIC50=-log IC50, IC50 in M
# Method: (§1) HIV-1 viral suspensions were obtained by coculture of MT4 cells and H9 cells chronically infected by HIV-ILai isolate. 200 μl of a cell supernatant containing viral particles (HIV-ILai: 100 TCID50) were incubated at room temperature with various concentrations of different inhibitors. After 3 hours, virions were washed through 0.02 μm anopore membrane in 1.5 mL Vectaspin tube (Whatman) for 10 minutes at 5 000 g. Each of the three subsequent washes was performed in the same conditions after the viral concentrate was refilled with 500 μL of RPMI medium. Then, the viral concentrate was readjusted to the initial volume with RPMI plus 10% foetal calf serum (FCS). The residual infectivity was assayed on P4 cells as described by CHARNEAU et al. (1994, J. Mol. Biol., 241, 651-662). Briefly, P4 cells were plated using 100 μL of DMEM medium plus 10% FCS in 96 plate multi-wells at 20×10^5 cells per mL. After overnight incubation at 37° C., the supernatant was discarded and the viral preparation (200 μL) was added. One day later the wells were washed three times in PBS. Each well was refilled with 200 μL of a reaction buffer containing 50 mM Tris-HCl pH 8.5, 100 mM 2-mercaptoethanol, 0.05% Triton X-100 and 5 mM 4-methylumbelliferyl β-D-galactopyranoside (MUG). After 3 hours at 37° C., the level of the reaction was measured in a fluorescence microplate reader.
# (§2) The retrovirucidal effect of each pyridinone derivative listed in table 3 has been assayed according to the teachings of example 2, excepted that the anti-viral effect has been tested on the two following HIV-1 strains:
# b) HIV-1 strain 103 N which is a mutant strain bearing a point mutation in the reverse transcriptase gene leading to an enzyme wherein the initial Lys-103 residue is replaced for a Asn residue.
# The HIV-1 103 N strain has also been described by SAHLBERG et al.,(1998, Antiviral Res., 37 (3): ASS) and BALZARiNI et al. (1996, Antimicrobial Agents and Chemotherapy, 40 (6): 1454-1466).
# HIV-1 strain IIIB = assay: Retrovirucidal effect on HIV-1 strain IIIB (Table 3); assay type: cell-based; details: for HIV1 pIC50 strain IIIB: pIC50=-log IC50, IC50 in M
# Method: as §1, §2
# a) HIV-1 strain IIIB (see example 2);
Compound,HIV1 pIC50 strain 103N (HIV-1 strain 103 N),HIV1 pIC50 (pIC50=−log IC50) (HIV-1 strain IIIB),HIV1 pIC50 strain IIIB (HIV-1 strain IIIB)
CCc1c(C)[nH]c(=O)c(N)c1Sc1cc(C)cc(C)c1 [Compound 1],6.671,"7,6999",7.699
CCc1c(C)[nH]c(=O)c(N)c1C(=O)c1cc(C)cc(C)c1 [Compound 2],6.64,,6.612
CCc1c(C)[nH]c(=O)c(N(C)C)c1Cc1cc(C)cc(C)c1 [Compound 3],7.438,,8.004
CCc1c(C)[nH]c(=O)c(NCc2cc(C)c(C)cc2OC)c1Cc1cc(C)cc(C)c1 [Compound 4],<4,,5.094
CCc1c(C)[nH]c(=O)c(N)c1Cc1cc(C)cc(C)c1 [Compound 5],5.636,,6.261
CCc1c(C)[nH]c(=O)c(N)c1C(O)c1cc(C)cc(C)c1 (centres unmarked) [Compound 6],5.026,,5.795
CCc1c(C)[nH]c(=O)c(N)c1Cc1ccc2ccccc2c1 [Compound 7],<4,,<4
CCc1c(C)[nH]c(=O)c(N)c1Cc1ccc(C)cc1 [Compound 8],4.39,,4.373
CCc1c(C)[nH]c(=O)c(N)c1Cc1cccc(C)c1 [Compound 9],5.103,,5.373
CCc1c(C)[nH]c(=O)c(N(C)C)c1Cc1ccc2ccccc2c1 [Compound 10],4.389,,6.241
CCc1c(Cc2cc(C)cc(C)c2)c(N(C)C)c(=O)n(C)c1C [Compound 11],6.094,,7.215
CCc1c(C)[nH]c(=O)c(N(CC)CC)c1Cc1cc(C)cc(C)c1 [Compound 12],6.363,,8.022
CCc1c(C)[nH]c(=O)c(N(C)C)c1Cc1cccc(C)c1 [Compound 13],7.622,,8.824
CCc1c(C)[nH]c(=O)c(N(C)C)c1Cc1ccccc1C [Compound 14],5.849,,7.676
Cc1cc(C)cc(Cc2cc[nH]c(=O)c2N)c1 [Compound 15],4.138,,<4.17
Cc1cc(C)cc(Cc2cc[nH]c(=O)c2N(C)C)c1 [Compound 16],4.401,,5.061
CCCN(CCC)c1c(Cc2cc(C)cc(C)c2)c(CC)c(C)[nH]c1=O [Compound 17],4.379,,6.285
CCc1c(C)[nH]c(=O)c(N(C)C)c1Cc1ccc(C)cc1 [Compound 18],4.895,,6.454
CCc1c(C)[nH]c(=O)c(N(C)C)c1Cc1ccc(C)c(C)c1 [Compound 19],5.947,,7.447

Compound,HIV1 pIC50 strain 103N (HIV-1 strain 103 N),HIV1 pIC50 (pIC50=−log IC50) (HIV-1 strain IIIB),HIV1 pIC50 strain IIIB (HIV-1 strain IIIB)
CCc1c(C)[nH]c(=O)c(N(C)C)c1Cc1cccc(C)c1C [Compound 20],5.585,,6.926
CCc1c(C)[nH]c(=O)c(N(C)C)c1Cc1ccccc1 [Compound 21],6.65,,8.409
CCc1c(Cc2cc(C)cc(C)c2)c(N(C)C)c(=O)n(Cc2ccccc2)c1C [Compound 22],<4,,4.603
CCOC(=O)Cn1c(C)c(CC)c(Cc2cc(C)cc(C)c2)c(N(C)C)c1=O [Compound 23],<4,,5.254
CCCCN(CCCC)c1c(Cc2cc(C)cc(C)c2)c(CC)c(C)[nH]c1=O [Compound 24],<4,,4.262
CCc1c(C)[nH]c(=O)c(N(Cc2ccccc2)Cc2ccccc2)c1Cc1cc(C)cc(C)c1 [Compound 25],4.259,,<4
CCc1[nH]c(=O)c(N)c(Cc2cc(C)cc(C)c2)c1C [Compound 27],5.098,,5.949
CCc1[nH]c(=O)c(N(C)C)c(Cc2cc(C)cc(C)c2)c1C [Compound 28],6.943,,8.032
CCc1c(C)[nH]c(=O)c(NCc2ccccc2)c1Cc1cc(C)cc(C)c1 [Compound 29],5.496,,6.555
CCc1c(C)[nH]c(=O)c(N2CCCCC2)c1Cc1cc(C)cc(C)c1 [Compound 30],4.224,,6.214
CCc1c(C)[nH]c(=O)c(N)c1Cc1ccc(C)cc1C [Compound 31],<4,,<4
Cc1cc(C)cc(Cc2c(C)c(C)[nH]c(=O)c2N)c1 [Compound 32],<5,,6.104
Cc1cc(C)cc(Cc2c(C)c(C)[nH]c(=O)c2N(C)C)c1 [Compound 33],6.286,,8.42
CCc1c(C)[nH]c(=O)c(N(C)C)c1Cc1ccc(C)cc1C [Compound 34],<4,,5.019
CCc1c(C)[nH]c(=O)c(N(C)C)c1C(=O)c1cc(C)cc(C)c1 [Compound 35],7.987,,8.585
CCc1c(C)[nH]c(=O)c(N2CCOCC2)c1Cc1cc(C)cc(C)c1 [Compound 36],<4,,6.763
CCc1c(C)[nH]c(=O)c(N(C)C)c1Cc1cc(C)ccc1C [Compound 37],5.729,,6.796
CCc1c(C)[nH]c(=O)c(N(C)C)c1Cc1cc(F)cc(F)c1 [Compound 38],7.402,,8.155
CCc1c(C)[nH]c(=O)c(N)c1Cc1cccc(Cl)c1 [Compound 39],4.751,,5

Compound,HIV1 pIC50 strain 103N (HIV-1 strain 103 N),HIV1 pIC50 (pIC50=−log IC50) (HIV-1 strain IIIB),HIV1 pIC50 strain IIIB (HIV-1 strain IIIB)
CCc1c(C)[nH]c(=O)c(N(C)C)c1Cc1cccc(Cl)c1 [Compound 40],7.412,,8.585
CCc1c(C)[nH]c(=O)c(N)c1Cc1cccc(F)c1 [Compound 41],4.473,,5.131
CCc1c(C)[nH]c(=O)c(N(C)C)c1Cc1cccc(F)c1 [Compound 42],7.18,,8.569
CCc1c(C)[nH]c(=O)c(N(C)C)c1Cc1cn(C)c2ccccc12 [Compound 43],6.422,,7.377
CCc1c(C)[nH]c(=O)c(N(C)C)c1Cc1cccnc1 [Compound 44],6.355,,7.889
CCc1c(Cc2cc(C)cc(C)c2)c(N(C)C)c(=O)n(CC)c1C [Compound 45],4.095,,5.519
CCc1c(C)[nH]c(=O)c(NC)c1Cc1cc(C)cc(C)c1 [Compound 46],7.034,,8.119
CCCN(C)c1c(Cc2cc(C)cc(C)c2)c(CC)c(C)[nH]c1=O [Compound 47],6.968,,7.767
CCc1c(C)[nH]c(=O)c(N(C)C)c1C(O)c1cc(C)cc(C)c1 (centres unmarked) [Compound 48],6.711,,8
CCc1c(C)[nH]c(=O)c(N)c1Cc1ccc(-c2ccccc2)cc1 [Compound 49],<5,,<4
CCc1c(C)[nH]c(=O)c(N)c1Cc1cccc(C(F)(F)F)c1 [Compound 50],<5,,<5
CCc1c(C)[nH]c(=O)c(N(C)C)c1Cc1ccc(-c2ccccc2)cc1 [Compound 51],<5,,5.384
CCc1c(C)[nH]c(=O)c(N)c1Cc1ccc(C(F)(F)F)cc1 [Compound 52],<5,,<4
CCc1c(C)[nH]c(=O)c(N(C)C)c1Cc1ccc(C(F)(F)F)cc1 [Compound 53],<5,,5.828
CCc1c(C)[nH]c(=O)c(N)c1Cc1ccc(Cl)cc1 [Compound 54],<5,,<4
CCc1c(C)[nH]c(=O)c(N(C)CC)c1Cc1cc(C)cc(C)c1 [Compound 56],7.11,,8.194
CCc1c(C)[nH]c(=O)c(N(C)C)c1Cc1cccc(C(F)(F)F)c1 [Compound 57],6.414,,8.086
CCc1c(C)[nH]c(=O)c(N)c1Cc1c(C)cc(C)cc1C [Compound 58],<5,,<4
